Source: ChEMBL document CHEMBL1201862, “PubChem BioAssay data set” (2004)
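A five-concentration, 48-hour dose response in 96-well plates underlies each endpoint, interpolated linearly between surrounding concentrations. GI50 marks 50% less growth.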 The source made the active and inactive calls. Rule as the data show it: active = GI50 up to about 1.1 µM and inactive = higher.

Columns and labels:
Assay in all cases: DTP human tumour cell line panel, 48 h
[1] = test system: A498
[2] = test system: TK-10
[3] = test system: K562
[4] = test system: EKVX
[5] = test system: COLO 205
[6] = test system: CCRF-CEM
[7] = test system: OVCAR-3
[8] = test system: DLD-1
[9] = test system: U-251
[10] = test system: HCT-15
[11] = test system: SF-268
[12] = test system: SK-MEL-2
[13] = test system: HCT-116
[14] = test system: ACHN
[15] = test system: OVCAR-5
[16] = test system: HOP-92

| Structure (SMILES) | GI50 [1] | GI50 [2] | GI50 [3] | GI50 [4] | GI50 [5] | GI50 [6] | GI50 [7] | GI50 [8] | GI50 [9] | GI50 [10] | GI50 [11] | GI50 [12] | GI50 [13] | GI50 [14] | GI50 [15] | GI50 [16] |
| --- | --- | --- | --- | --- | --- | --- | --- | --- | --- | --- | --- | --- | --- | --- | --- | --- |
| COc1ccc(C(=O)Nc2ccccc2)cc1[N+](=O)[O-] | > 100 µM (inactive) | > 100 µM (inactive) | > 100 µM (inactive) | 46.6 µM (inactive) | > 100 µM (inactive) | > 100 µM (inactive) | 58.9 µM (inactive) | > 100 µM (inactive) | > 100 µM (inactive) | > 100 µM | > 100 µM (inactive) | > 100 µM (inactive) |  |  |  |  |
| O=C(c1cccc2ccccc12)N1CCC(C2CCN(C(=O)c3cccc4ccccc34)CC2)CC1 | > 100 µM (inactive) | > 100 µM (inactive) | > 100 µM (inactive) | > 100 µM (inactive) | > 100 µM (inactive) | > 100 µM (inactive) | > 100 µM (inactive) | > 100 µM (inactive) | > 100 µM (inactive) | > 100 µM | > 100 µM (inactive) | > 100 µM (inactive) | > 100 µM (inactive) | > 100 µM (inactive) | 99.1 µM (inactive) | > 100 µM (inactive) |
| CC(NS(=O)(=O)c1ccc([N+](=O)[O-])cc1)C(=O)O (stereo unspecified) | > 100 µM (inactive) | > 100 µM (inactive) | > 100 µM (inactive) | > 100 µM (inactive) | > 100 µM (inactive) | > 100 µM (inactive) | > 100 µM (inactive) | > 100 µM (inactive) | > 100 µM (inactive) | > 100 µM | > 100 µM (inactive) | > 100 µM (inactive) |  | > 100 µM (inactive) | > 100 µM (inactive) | > 100 µM (inactive) |
| CC(=O)N1CCN(C=S)CC1 | > 100 µM (inactive) | > 100 µM (inactive) | > 100 µM (inactive) | > 100 µM (inactive) | > 100 µM (inactive) | > 100 µM (inactive) | > 100 µM (inactive) | > 100 µM (inactive) | > 100 µM (inactive) | > 100 µM | > 100 µM (inactive) |  | > 100 µM (inactive) | > 100 µM (inactive) | > 100 µM (inactive) | > 100 µM (inactive) |
| CN(C)C(=S)/N=c1\ss/c(=N\C(=S)N(C)C)n1Cc1ccco1 | > 100 µM (inactive) | > 100 µM (inactive) | > 100 µM (inactive) |  | > 100 µM (inactive) | > 100 µM (inactive) |  | > 100 µM (inactive) | > 100 µM (inactive) | > 100 µM | > 100 µM (inactive) | > 100 µM (inactive) | > 100 µM (inactive) | > 100 µM (inactive) |  |  |
| O=C1[C@@H]2C3C=CC([C@H]4C(=O)N(CO)C(=O)[C@@H]34)[C@@H]2C(=O)N1CO | > 100 µM (inactive) | > 100 µM (inactive) | 61.2 µM (inactive) | > 100 µM (inactive) | > 49.9 µM (inactive) | 25.2 µM (inactive) | > 100 µM (inactive) | 48.5 µM (inactive) | > 56.2 µM (inactive) | 25.4 µM | > 49.7 µM (inactive) | > 100 µM (inactive) | 34.9 µM (inactive) | > 50.7 µM (inactive) | > 100 µM (inactive) | > 78.2 µM (inactive) |
| O=C1CC(O)C=C1Nc1ccc(Cl)cc1 (stereo unspecified) | 13.8 µM (inactive) | > 100 µM (inactive) | 4.4 µM (inactive) | 27.7 µM (inactive) | 9.95 µM (inactive) | 11.4 µM (inactive) | 71.6 µM (inactive) | 22.3 µM (inactive) | 49.3 µM (inactive) |  | 62.4 µM (inactive) | 29.6 µM (inactive) | 30.6 µM (inactive) | 6.98 µM (inactive) | 90.8 µM (inactive) | 49.1 µM (inactive) |
| c1ccc2c(c1)N=C(c1cccc3ccccc13)CC(c1cccc3ccccc13)S2 (stereo unspecified) | 7.94 µM (inactive) | 12.2 µM (inactive) | 2.49 µM (inactive) | 14 µM (inactive) | 12.9 µM (inactive) | 2.05 µM (inactive) | 2.77 µM (inactive) | 3.6 µM (inactive) | 2.63 µM (inactive) | 4.26 µM | 4.42 µM (inactive) | 14.9 µM (inactive) | 3.19 µM (inactive) | 10.2 µM (inactive) | 6.9 µM (inactive) |  |
| COc1ccc(/C=C/c2cc(OC)c(OC)c(OC)c2)cc1OC | > 74.1 µM (inactive) | > 100 µM (inactive) | > 100 µM (inactive) | > 100 µM (inactive) | > 100 µM (inactive) | > 100 µM (inactive) | > 100 µM (inactive) | 81.5 µM (inactive) | > 100 µM (inactive) | > 56.2 µM | > 67.9 µM (inactive) | > 100 µM (inactive) | > 100 µM (inactive) | > 100 µM (inactive) | > 100 µM (inactive) | 80.5 µM (inactive) |
| O=C(CC1(O)C(=O)Nc2ccccc21)c1ccncc1 (stereo unspecified) | > 100 µM (inactive) |  | > 100 µM (inactive) | > 100 µM (inactive) | > 100 µM (inactive) | > 100 µM (inactive) |  | > 100 µM (inactive) | > 100 µM (inactive) | > 100 µM | > 100 µM (inactive) | > 100 µM (inactive) | > 100 µM (inactive) | > 100 µM (inactive) | > 100 µM (inactive) | > 100 µM (inactive) |
| Cc1ccc(/C=C/C(=O)c2cccc3ccccc23)cc1 | 13.9 µM (inactive) | 15.2 µM (inactive) | 8.65 µM (inactive) | 17.8 µM (inactive) | 20.5 µM (inactive) | 15.9 µM (inactive) | 17.5 µM (inactive) | > 10 µM (inactive) | 13 µM (inactive) | 19.1 µM | 16.2 µM (inactive) | 18.5 µM (inactive) | 11.5 µM (inactive) | 16.9 µM (inactive) | 14.4 µM (inactive) |  |
| CCOC(=O)c1[nH]c2c(OC)n[n+]([O-])cc2c1[N+](=O)[O-] | 21.8 µM (inactive) | 16.4 µM (inactive) | 14.4 µM (inactive) | 21.3 µM (inactive) | 25.1 µM (inactive) | 26.1 µM (inactive) | 20.6 µM (inactive) | 17.2 µM (inactive) | 17 µM (inactive) | 18.4 µM | 32 µM (inactive) | 19.8 µM (inactive) | 19 µM (inactive) | 17.3 µM (inactive) | 19.6 µM (inactive) |  |
| CN(C(=O)C12C3C4C5C3C1(C(=O)C13C6C7C8C6C1C8C73)C5C42)C(C)(C)C (stereo unspecified) | > 50 µM (inactive) | > 50 µM (inactive) | > 25.6 µM (inactive) | > 50 µM (inactive) | > 29.8 µM (inactive) | > 24 µM (inactive) | > 50 µM (inactive) | > 23.2 µM (inactive) | > 50 µM (inactive) | > 21.3 µM | > 50 µM (inactive) | > 50 µM (inactive) | 9.55 µM (inactive) | > 50 µM (inactive) | > 50 µM (inactive) | > 50 µM (inactive) |
| CN(C)CC(C)(C)/C(=N\Nc1ccccc1)c1ccccc1 | 82.8 µM (inactive) | 22.7 µM (inactive) | 28.1 µM (inactive) | 47.2 µM (inactive) | 64.3 µM (inactive) | 29.7 µM (inactive) | 54.8 µM (inactive) | 30.4 µM (inactive) | 37.4 µM (inactive) | 16.2 µM | 31.8 µM (inactive) | 58.1 µM (inactive) | 68.4 µM (inactive) | 20.1 µM (inactive) | 46.6 µM (inactive) |  |
| Clc1ccc(C2=Nc3ccccc3SC(c3ccc(Cl)c(Cl)c3)C2)c(Cl)c1 (stereo unspecified) | 20.6 µM (inactive) | 20.6 µM (inactive) | 6 µM (inactive) | 16.4 µM (inactive) | 18.5 µM (inactive) | 3.11 µM (inactive) | 13.3 µM (inactive) | 12.6 µM (inactive) | 17.8 µM (inactive) | 9.71 µM | 13.2 µM (inactive) | 17.4 µM (inactive) | 11.4 µM (inactive) | 14.2 µM (inactive) | 17.1 µM (inactive) | 13.8 µM (inactive) |
| C[n+]1c2ccccc2c(NC(CS)C(=O)O)c2ccccc21 (stereo unspecified) | 15.6 µM (inactive) | 36.6 µM (inactive) | 28.6 µM (inactive) | 24.4 µM (inactive) | 30.1 µM (inactive) |  | 17.7 µM (inactive) | 23.1 µM (inactive) | 24.5 µM (inactive) | 28.1 µM | 19.8 µM (inactive) | 28.2 µM (inactive) | 13.5 µM (inactive) | 36.5 µM (inactive) | 74.1 µM (inactive) | 20.2 µM (inactive) |
| O=C1[C@@H]2C(c3cccc([N+](=O)[O-])c3)=NO[C@@H]2C(=O)N1c1ccc(Cc2ccc(N3C(=O)[C@H]4C(c5cccc([N+](=O)[O-])c5)=NO[C@H]4C3=O)cc2)cc1 |  | > 100 µM (inactive) | > 100 µM (inactive) |  | > 100 µM (inactive) | > 100 µM (inactive) | > 100 µM (inactive) | > 100 µM (inactive) | > 10 µM (inactive) | > 100 µM | > 10 µM (inactive) | > 100 µM (inactive) | > 100 µM (inactive) | > 100 µM (inactive) | > 100 µM (inactive) | > 100 µM (inactive) |
| COc1ccc(C2=NC(CO)[C@H](c3ccccc3)O2)cc1OC (stereo partly specified) | > 100 µM (inactive) |  | > 100 µM (inactive) |  | > 100 µM (inactive) | > 100 µM (inactive) | > 100 µM (inactive) | 78 µM (inactive) |  | > 100 µM | > 100 µM (inactive) | > 100 µM (inactive) | > 100 µM (inactive) | > 100 µM (inactive) | > 100 µM (inactive) | > 100 µM (inactive) |
| CC1(C)C(=NNC(=O)C[N+](C)(C)C)C(C)(C)C1=NNC(=O)C[N+](C)(C)C | > 100 µM (inactive) | > 100 µM (inactive) | > 100 µM (inactive) | > 100 µM (inactive) | > 100 µM (inactive) | > 100 µM (inactive) | > 100 µM (inactive) | > 100 µM (inactive) | > 100 µM (inactive) | > 100 µM | > 100 µM (inactive) | > 100 µM (inactive) | > 100 µM (inactive) | > 100 µM (inactive) | > 100 µM (inactive) | > 100 µM (inactive) |
